Tests used:
[1] = system: Aggregatibacter actinomycetemcomitans; assay: Growth inhibition (OD610), single culture; assay type: cell-based; details: A. actinomycetemcomitans
Protocol: (§1) Single species of Streptococcus gordonii (S. gordonii, S.g) strain V288 (ATCC #35105), Streptococcus sobrinus (S. sobrinus, S.$) strain SL1[CCM 6070, CNCTC 9/89] (ATCC #33478), or Aggregatibacter actinomycetemcomitans were analyzed. Also, a mixed culture containing Actinomyces viscosus (A. viscosus, A.v) strain (ATCC, #43146), Lactobacillus casei (L. casei, L.c) strain (ATCC #334), Streptococcus oralis (S. oralis, S. o) strain (ATCC #35037), Fusobacterium nucleatum (F. nucleatum, F. n) strain (ATCC #10953), and Veilonella parvula (V. parvula, V. p) strain (ATCC #17745) was also analyzed for growth inhibition/toxicity activity. Bacteria were cultured overnight in approximately 20 ml of BHI broth (BD, cat #237500) or maintained in a specialized complex modified BHI II medium in a continuous culture chemostat at 37° C. respectively. The following day, the OD610 were determined and solutions diluted to an OD610 of 0.2 or 0.1 respectively for the assay.
(§2) Triclosan (positive control) was prepared as a 10% stock in 100% EtOH and 3 fold serial dilutions were performed in 100% EtOH. An appropriate amount of the diluted samples was then transferred into a 96 well clear plate such that the resulting final concentration of the test samples ranged from either a 2 mM or 4 mM (highest concentration) to 0.0078 mM or 0.0156 mM (lowest concentration respectively) in 2% DMSO in 100 μl media per well. Triclosan (TCN) ranged from 0.01% to 1.67e-6% in 1% EtOH. For Zinc acetate, in order to mimic the 2:1 molar ratio (ligand:Zinc) in the Naringin:Zinc complex, the final concentration ranged from 0.7 mM to 0.0027 mM for samples with 2 mM as the highest concentration and 1.33 mM to […] for samples with 4 mM as the highest concentration in 2% DMSO. Next, 100 μl of bacterial culture at OD610 0.2 were introduced to the wells with the test samples. The wells were thoroughly mixed and incubated at 37° C. overnight. The plates were read using an Envision plate reader (PerkinElmer, Waltham, Mass.) at 610 nm.
(§3) The IC50 for the complex, Product 5, was determined for Streptococcus gordonii (S. gordonii), Streptococcus sobrinus (S. sobrinus), Aggregatibacter actinomycetemcomitans (A. actinomycetemcomitans), and also for the mixed bacterial culture. […] Triclosan (TCN) was included as a positive control for bacterial inhibition.
(§4) Further characterization was performed on planktonic oral microbes; Streptococcus sobrinus (Cariongenic—strain-SL1[CCM 6070, CNCTC 9/89] (ATCC cat. #33478), Streptococcus gordonii (Arginolytic—strain V288 (ATCC cat. #35105), Actinomyces viscosus) as well late colonizer (Gram −), pathogenic Aggregatibacter actinomycetemcomitans. All microbes were grown in their respective culture media: Streptococcus sobrinus and Streptococcus gordonii in BHI broth (BD, cat #237500), Aggregatibacter actinomycetemcomitans in BHI broth supplemented with 0.5% Yeast Extract (BD, cat #210941) and Actinomyces viscosus in Trypticase Soy Broth (BD, cat #211768) supplemented with 0.5% Yeast Extract (BD, cat #210941). Bacteria were cultured overnight in 37° C., 5% CO2 in approximately 20 ml of the appropriate culture broth. The following day, the OD610 was determined and solutions were diluted to 0.2 for the assay.
(§5) Triclosan (positive control) was prepared as a 10% stock in 100% EtOH and 3 fold serial dilutions were done in 100% EtOH. […] For Naringin+Zinc combination, while the highest total overall concentration was 2 mM, the exact concentration was Naringin (1.3 mM) and Zinc Acetate (0.7 mM) due to the compositions 2:1 molar ratio. For Zinc Acetate, in order to mimic the 2:1 ratio (ligand:Zinc) composition as in the complex, the final concentration ranged from 0.7 mM to 0.0027 mM in 2% DMSO.
(§6) A 100 μl aliquot of bacterial culture at OD610 0.2 were introduced to the wells with the test samples. The wells were thoroughly mixed and plates incubated overnight in a 37° C. incubator with or without 5% CO2 depending upon the bacterial species.

Streptococcus gordonii = assay: Growth inhibition (OD610), single culture; assay type: cell-based
Protocol: as §1, §2, §3, §4, §5, §6

Streptococcus sobrinus = assay: Growth inhibition (OD610), single culture; assay type: cell-based
Protocol: as §1, §2, §3, §4, §5, §6

Actinomyces viscosus = assay: Growth inhibition (OD610), single culture; assay type: cell-based; details: A. viscosus
Protocol: as §4
(§7) Test samples (Naringin, Naringin:Zinc complex and Naringin+Zinc Acetate (combination)) were prepared as a 100 mM stock solution followed by 2 fold serial dilution in 100% DMSO. Triclosan (positive control) was prepared as a 10% stock in 100% EtOH and 3 fold serial dilutions were done in 100% EtOH. […]
(§8) After approximately 12-13 hours of treatment, the plate was read at 610 nm using an Envision plate reader (PerkinElmer, Waltham, Mass.). The % inhibition relative to control was determined as follows: […]

S. gordonii/A. viscosus = assay: Growth inhibition (OD610), co-culture; assay type: cell-based, S. gordonii and A. viscosus
Protocol: as §4, §7, §8

S. sobrinus/A. viscosus = assay: Growth inhibition (OD610), co-culture; assay type: cell-based, S. sobrinus and A. viscosus
Protocol: as §4, §7, §8

[2] = system: A. actinomycetemcomitans/A. viscosus; assay: Growth inhibition (OD610), co-culture; assay type: cell-based, A. actinomycetemcomitans and A. viscosus
Protocol: as §4, §7, §8

[3] = system: planktonic oral bacterial species (S. sobrinus, S. gordonii, A. actinomycetemcomitans, A. viscosus, mixed cultures); assay: Growth inhibition, summary statements over the single, co- and mixed cultures tested; assay type: cell-based, oral bacteria; details: for inhibition of single species, co-cultures and mixed cultures (in words): concentrations of Tables 7-12
Protocol: as §1, §2, §3, §4, §5, §6

[4] = 0.5 mM (combination 0.5 mM total)

SMILES	inhibition at 500 µM ([1]; Aggregatibacter actinomycetemcomitans, 0.5 mM (combination 0.325 mM + 0.175 mM, 0.5 mM total))	inhibition at 500 µM (Streptococcus gordonii; Streptococcus gordonii, S. gordonii, 0.5 mM (combination 0.325 mM + 0.175 mM, 0.5 mM total))	inhibition at 500 µM (Streptococcus sobrinus; Streptococcus sobrinus, S. sobrinus, 0.5 mM (combination 0.325 mM + 0.175 mM, 0.5 mM total))	inhibition at 500 µM (Actinomyces viscosus; Actinomyces viscosus, 0.5 mM (combination 0.325 mM + 0.175 mM, 0.5 mM total))	inhibition at 500 µM (S. gordonii/A. viscosus; [4])	inhibition at 500 µM (S. sobrinus/A. viscosus; [4])	inhibition at 500 µM [2, 4]	antimicrobial effect on bacterial species tested (in words) ([3]; all concentrations tested, cultured alone or as co-cultures)	inhibition of single species, co-cultures and mixed cultures (in words) [3]	% Inhibition ([1]; 0.175 mM)	% Inhibition (Streptococcus gordonii; S. gordonii, 0.175 mM)	IC50 (Streptococcus gordonii; Streptococcus gordonii, overnight at 37° C., read-out: IC50)	% Inhibition (Streptococcus sobrinus; S. sobrinus, 0.175 mM)	IC50 (Streptococcus sobrinus; Streptococcus sobrinus, overnight at 37° C., read-out: IC50)	% Inhibition (Actinomyces viscosus; 0.175 mM)	% Inhibition (S. gordonii/A. viscosus; 0.175 mM)	% Inhibition (S. sobrinus/A. viscosus; 0.175 mM)	% Inhibition ([2]; 0.175 mM)	IC50 range over cultures tested, corresponding ppm ([3]; S. sobrinus, S. gordonii, A. actinomycetemcomitans and mixed chemostat cultures)	IC50 ([3]; S. sobrinus, S. gordonii, A. actinomycetemcomitans and mixed chemostat cultures, read-out: concentration that inhibited 50% of the bacterial growth (IC50), range over cultures tested)
C[C@@H]1O[C@@H](O[C@H]2[C@H](Oc3cc(O)c4c(c3)O[C@H](c3ccc(O)cc3)CC4=O)O[C@H](CO)[C@@H](O)[C@@H]2O)[C@H](O)[C@H](O)[C@H]1O [Naringin]	5.01 ± 1.69%	0.96 ± 2.82%	-2.64 ± 2.54%	-3.5 ± 4.1%	-2.39 ± 5.68%	-3.79 ± 7.15%	-0.03 ± 2.02%	did not show detectable antimicrobial effect	little to no detectable inhibition											
CC(=O)[O-].CC(=O)[O-].[Zn+2] [Zinc Acetate alone, Zinc (II) Acetate]									little to no detectable inhibition	29.24 ± 0.42%	13.51 ± 10.18%	300 ± 20 µM	−1.05 ± 3.10%	290 ± 40 µM	−1.84 ± 5.86%	−0.74 ± 6.34%	2.46 ± 6.58%	4.13 ± 6.89%	45.9-317.5 ppm	250 to 1730 µM
